The values below are quoted from earlier work in patent US20030056896A1, “Effective therapy for epilepsies” (priority 1995, published 2003).

Like-named read-outs stand apart in the source and are kept apart here.

In the case of `NC(=O)N1c2ccccc2C=Cc2ccccc21` [carbamazepine], the solubility entry (in water) was “practically insoluble in water”.

`O=C1NC(=O)C(c2ccccc2)(c2ccccc2)N1` [phenytoin]: the solubility result (gastrointestinal pH range of 1 to 8) is “practically insoluble”.
